Legend:
Type in all cases: in vivo
[1] = test system: barnyardgrass (Echinochloa crus-galli); experiment: Test B flooded paddy test; conditions: Flood
Method: (§1) At the same time, plants selected from these crop and weed species and also blackgrass (Alopecurus myosuroides) and wild oat (Avena fatua) were treated with postemergence applications of test chemicals formulated in the same manner. Plants ranged in height from 2 to 18 cm (1- to 4-leaf stage) for postemergence treatments. Plant species in the flooded paddy test consisted of rice (Oryza sativa), umbrella sedge (Cyperus difformis), duck salad (Heteranthera limosa) and barnyardgrass (Echinochloa crus-galli) grown to the 2-leaf stage for testing. Treated plants and controls were maintained in a greenhouse for 13 to 15 days, after which time all species were compared to controls and visually evaluated. Plant response ratings, summarized in Table B, are based on a scale of 0 to 100 where 0 is no effect and 100 is complete control. A dash (-) response means no test result.

[2] = test system: umbrella sedge (Cyperus difformis); experiment: Test B flooded paddy test; conditions: Flood, scale 0 to 100
Method: as §1

[3] = test system: rice (Oryza sativa); experiment: Test B flooded paddy test; conditions: Flood, scale 0 to 100
Method: as §1

[4] = test system: duck salad (Heteranthera limosa); experiment: Test B flooded paddy test; conditions: Flood, scale 0 to 100
Method: as §1

[5] = test system: crabgrass (Digitaria sanguinalis); experiment: Test B pre/postemergence
Text: (§2) Seeds selected from barnyardgrass (Echinochloa crus-galli), Surinam grass (Brachiaria decumbens), cocklebur (Xanthium strumarium), corn (Zea mays), crabgrass (Digitaria sanguinalis), giant foxtail (Setaria faberii), lambsquarters (Chenopodium album), morningglory (Ipomoea coccinea), pigweed (Amaranthus retroflexus), velvetleaf (Abutilon theophrasti), and wheat (Triticum aestivum) were planted and treated preemergence with test chemicals formulated in a non-phytotoxic solvent mixture which included a surfactant.
as §1

[6] = test system: corn (Zea mays); experiment: Test B pre/postemergence
Text: as §2, §1

[7] = test system: velvetleaf (Abutilon theophrasti); experiment: Test B pre/postemergence
Text: as §2, §1

[8] = test system: morningglory (Ipomoea coccinea); experiment: Test B pre/postemergence
Text: as §2, §1

[9] = test system: barnyardgrass (Echinochloa crus-galli); experiment: Test B pre/postemergence
Text: as §2, §1

[10] = test system: Surinam grass (Brachiaria decumbens); experiment: Test B pre/postemergence
Text: as §2, §1

[11] = test system: pigweed (Amaranthus retroflexus); experiment: Test B pre/postemergence
Text: as §2, §1

[12] = test system: cocklebur (Xanthium strumarium); experiment: Test B pre/postemergence
Text: as §2, §1

[13] = test system: giant foxtail (Setaria faberii); experiment: Test B pre/postemergence
Text: as §2, §1

[14] = test system: lambsquarters (Chenopodium album); experiment: Test B pre/postemergence
Text: as §2, §1

[15] = test system: wheat (Triticum aestivum); experiment: Test B pre/postemergence
Text: as §2, §1

[16] = test system: blackgrass (Alopecurus myosuroides); experiment: Test B postemergence
Text: as §2, §1

[17] = test system: wild oat (Avena fatua); experiment: Test B postemergence
Text: as §2, §1

[18] = test system: crabgrass (Digitaria sanguinalis); experiment: Test A pre/postemergence
Summary of the method: (§3)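 Pre/post greenhouse screen; loam/sand soil; solvent + surfactant formulation; pre = directed soil spray at planting, post = 1–2 leaf plants, 2–10 cm; ~10 d; visual 0–100 rating vs untreated.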

[19] = test system: giant foxtail (Setaria faberi); experiment: Test A pre/postemergence
Summary of the method: as §3

[20] = test system: velvetleaf (Abutilon theophrasti); experiment: Test A pre/postemergence
Summary of the method: as §3

[21] = test system: barnyardgrass (Echinochloa crus-galli); experiment: Test A pre/postemergence
Summary of the method: as §3

[22] = test system: redroot pigweed (Amaranthus retroflexus); experiment: Test A pre/postemergence
Summary of the method: as §3

[23] = test system: morningglory (Ipomoea spp.); experiment: Test A pre/postemergence
Summary of the method: as §3

[24] = Postemergence, 125 g ai/ha, scale 0 to 100 (0 no effect, 100 complete control)
[25] = Postemergence, 500 g ai/ha, scale 0 to 100
[26] = Preemergence, 125 g ai/ha, scale 0 to 100 (0 no effect, 100 complete control)
[27] = Preemergence, 500 g ai/ha, scale 0 to 100 (0 no effect, 100 complete control)
[28] = 125 g ai/ha, scale 0 to 100 (0 no effect, 100 complete control)
[29] = Postemergence, 125 g ai/ha, 0 to 100 scale (0 no effect, 100 complete control)
[30] = Postemergence, 500 g ai/ha, 0 to 100 scale (0 no effect, 100 complete control)
[31] = Preemergence, 125 g ai/ha, 0 to 100 scale where 0 is no effect and 100 is complete control, approximately ten days
[32] = Preemergence, 500 g ai/ha, 0 to 100 scale where 0 is no effect and 100 is complete control, approximately ten days

SMILES: CCOC(=O)c1nc(C2CC2)nc(NCCOC)c1Br [Compound 39]
- Plant response rating, Barnyardgrass ([1]; 1000 g ai/ha, scale 0 (no effect) to 100 (complete control)): 0
- Plant response rating, Sedge, Umbrella ([2]; 1000 g ai/ha): 0
- Plant response rating, Rice ([3]; 1000 g ai/ha): 0
- Plant response rating, Ducksalad ([4]; 1000 g ai/ha): 0
- Crabgrass plant response rating [5, 24]: 0
- Plant response rating, Crabgrass [5, 25]: 40
- Plant response rating, Crabgrass [5, 26]: 0
- Crabgrass plant response rating [5, 27]: 50
- Corn plant response rating [6, 24]: 0
- Plant response rating, Corn [6, 25]: 50
- Plant response rating, Corn [6, 26]: 30
- Corn plant response rating [6, 27]: 50
- Velvetleaf plant response rating [7, 24]: 40
- Plant response rating, Velvetleaf [7, 25]: 70
- Plant response rating, Velvetleaf [7, 26]: 0
- Velvetleaf plant response rating [7, 27]: 30
- Morningglory plant response rating [8, 24]: 80
- Plant response rating, Morningglory [8, 25]: 100
- Plant response rating, Morningglory [8, 26]: 30
- Morningglory plant response rating [8, 27]: 70
- Barnyardgrass plant response rating [9, 24]: 0
- Plant response rating, Barnyardgrass [9, 25]: 70
- Plant response rating, Barnyardgrass [9, 26]: 0
- Barnyardgrass plant response rating [9, 27]: 20
- Surinam Grass plant response rating [10, 24]: 0
- Plant response rating, Surinam Grass [10, 25]: 30
- Plant response rating, Surinam Grass [10, 26]: 0
- Surinam Grass plant response rating [10, 27]: 0
- Pigweed plant response rating [11, 24]: 50
- Plant response rating, Pigweed [11, 25]: 70
- Plant response rating, Pigweed [11, 26]: 70
- Pigweed plant response rating [11, 27]: 100
- Cocklebur plant response rating [12, 24]: 30
- Plant response rating, Cocklebur [12, 25]: 50
- Plant response rating, Cocklebur [12, 26]: 10
- Cocklebur plant response rating [12, 27]: 30
- Foxtail, Giant plant response rating [13, 24]: 0
- Plant response rating, Foxtail, Giant [13, 25]: 30
- Plant response rating, Foxtail, Giant [13, 26]: 0
- Foxtail, Giant plant response rating [13, 27]: 20
- Lambsquarters plant response rating [14, 24]: 70
- Plant response rating, Lambsquarters [14, 25]: 90
- Plant response rating, Lambsquarters [14, 26]: 50
- Lambsquarters plant response rating [14, 27]: 100
- Wheat plant response rating [15, 24]: 0
- Plant response rating, Wheat [15, 25]: 0
- Plant response rating, Wheat [15, 26]: 0
- Plant response rating, Wheat [15, 27]: 10
- Blackgrass plant response rating [16, 28]: 0
- Plant response rating, Blackgrass ([16]; 500 g ai/ha, scale 0 to 100): 0
- Oat, Wild plant response rating [17, 28]: 0
- Plant response rating, Oat, Wild ([17]; 500 g ai/ha, scale 0 to 100): 0

SMILES: CCOC(=O)c1nc(-c2ccc(C(F)(F)F)cc2)nc(N)c1Br [Compound 60]
- Plant response rating, Barnyardgrass ([1]; 125 g ai/ha, scale 0 to 100): 0
- Plant response rating, Barnyardgrass ([1]; 500 g ai/ha, scale 0 to 100): 20
- Plant response rating, Sedge, Umbrella ([2]; 125 g ai/ha): 0
- Plant response rating, Sedge, Umbrella ([2]; 500 g ai/ha): 30
- Plant response rating, Rice ([3]; 125 g ai/ha): 0
- Plant response rating, Rice ([3]; 500 g ai/ha): 0
- Plant response rating, Ducksalad ([4]; 125 g ai/ha): 80
- Plant response rating, Ducksalad ([4]; 500 g ai/ha): 90
- Plant response rating, Crabgrass [18, 29]: 0
- Plant response rating, Crabgrass [18, 30]: 0
- Plant response rating, Crabgrass [18, 31]: 0
- Plant response rating, Crabgrass [18, 32]: 0
- Plant response rating, Foxtail, Giant [19, 29]: 0
- Plant response rating, Foxtail, Giant [19, 30]: 0
- Plant response rating, Foxtail, Giant [19, 31]: 0
- Plant response rating, Foxtail, Giant [19, 32]: 0
- Plant response rating, Velvetleaf [20, 29]: 30
- Plant response rating, Velvetleaf [20, 30]: 40
- Plant response rating, Velvetleaf [20, 31]: 0
- Plant response rating, Velvetleaf [20, 32]: 0
- Plant response rating, Barnyardgrass [21, 29]: 0
- Plant response rating, Barnyardgrass [21, 30]: 0
- Plant response rating, Barnyardgrass [21, 31]: 0
- Plant response rating, Barnyardgrass [21, 32]: 0
- Plant response rating, Pigweed [22, 29]: 10
- Plant response rating, Pigweed [22, 30]: 40
- Plant response rating, Pigweed [22, 31]: 0
- Plant response rating, Pigweed [22, 32]: 0
- Plant response rating, Morningglory [23, 29]: 0
- Plant response rating, Morningglory [23, 30]: 20
- Plant response rating, Morningglory [23, 31]: 0
- Plant response rating, Morningglory [23, 32]: 0

From patent US8802597B2, “Herbicidal pyrimidines” (E I du Pont de Nemours and Company, priority 2003, dated 2014)
